Test results from patent US9783572B2, “Synthesis of syrbactin proteasome inhibitors” (The Regents of the University of California, priority 2009, dated 2017).

Key:
[1] = test system: RPMI/8226 multiple myeloma cell line; assay: Percent survival of cells, multiple myeloma versus leukemia line (FIG. 2); type: cell-based; details: FIG. 2, percent survival
Excerpt: Bortezomib (BZM), the first proteasome inhibitor to reach the clinic, is being used to treat patients with multiple myeloma and mantle cell lymphoma, and this is reflective of this agent's differential potency in different tumor cell types.

[2] = test system: ubiquitinated proteins (proteasome activity) in REH cells; assay: Western blot with anti-ubiquitin antibody in treated REH cells (FIG. 3); type: cell-based, human; details: increasing concentrations
Excerpt: An antibody against ubiquitin to reveal the presence of ubiquitinated proteins, which accumulate (and present as a smear, due to different molecular weights) in response to the inhibition of proteasome activity. Actin was used as a loading control.

proteasome = assay: Syringolin A treatment of a human neuroblastoma cell line; type: cell-based; details: 25 μM
Excerpt: They are members of a bioactive natural product family and includes the glidobactins/cepafungins now referred to as the syrbactins. Crystallography established that both syringolin A and B form a covalent adduct with the proteasome via conjugate addition of the N-terminal threonine hydroxyl group to their α,β-unsaturated lactams. Given the known properties of proteasome inhibitors, the action of syringolin A in cancer cells was investigated.

CC(C)C[C@H](NC(=O)[C@H](Cc1ccccc1)NC(=O)c1cnccn1)B(O)O [BZM, Bortezomib]
cytotoxicity in RPMI/8226 multiple myeloma cells compared with REH acute lymphocytic leukemia cells [1]: more cytotoxic to multiple myeloma cells | accumulation of ubiquitinated proteins [2]: substantial accumulation of ubiquitinated proteins

CC(C)[C@H](NC(=O)N[C@H](C(=O)N[C@H]1/C=C/CCNC(=O)/C=C/[C@H](C(C)C)NC1=O)C(C)C)C(=O)O [syringolin A]
accumulation of ubiquitinated proteins (proteasome): time-dependent accumulation of ubiquitinated proteins | proteasome activity (proteasome): dose-dependent decrease in proteasome activity
